Data on two compounds can be found in patent US11684603B2, “Neuraminidase inhibition to improve glycocalyx volume and function to ameliorate cardiovascular diseases in pathologies associated with glycocalyx damage” (priority 2017, dated 2023).

One test has as its system glycocalyx. The note with it: patients with familial hypercholesterolemia, short term treatment; cited from earlier work.
The subject of the next test is human endothelial cells. The test is described as follows: Wheat Germ Agglutinin (WGA) staining of the glycocalyx of cultured human endothelial cells. The note with it: neuraminidase plus Zanamivir for 1 hour. Format: cell-based.
The test system of test [1] is femoral arteries. The test is described as follows: Flow mediated dilation in isolated femoral arteries from treated db/db mice. It is filed as in vivo. The note with it: 5 mg twice a day via inhalation for 5 days, vs placebo control; increasing shear stress. The text has this:
Vessels were pre-constricted with phenylephrine and exposed to increasing shear stress (dynes/cm^2) to assess flow mediated dilation. […] Data represent mean+/−SEM, *P<0.05, determined by two-tailed Student t test.

Test [2] relates to femoral arteries. The test is described as follows: Vasodilation of pre-constricted femoral arteries from treated db/db mice to insulin, acetylcholine or sodium nitroprusside. Format: in vivo. The note with it: 5 mg twice a day via inhalation for 5 days, vs vehicle cohort. From the text:
In a separate set of experiments, vessels were pre-constricted and exposed to increasing concentrations of insulin (FIG. 8C) or endothelium-dependent vasodilator, acetylcholine (FIG. 8D). […] Data represent mean+/−SEM, *P<0.05, determined by two-tailed Student t test.
(§1) Data represent mean+/−SEM, *P<0.05, determined by two-tailed Student t test.

A further test relates to isolated aortas. The test is described as follows: Atomic force microscopy of aortic endothelial stiffness in treated db/db mice. The note with it: 5 mg twice a day via inhalation for 5 days, vs vehicle. It is filed as in vivo.
Source text: as §1

With `CC(C)c1nc(N(C)S(C)(=O)=O)nc(-c2ccc(F)cc2)c1/C=C/[C@@H](O)C[C@@H](O)CC(=O)O` [Rosuvastatin], in the test with glycocalyx, the glycocalyx volume result is listed as “partially restored glycocalyx volume” and the plasma hyaluronidase activity entry is “increase in plasma hyaluronidase activity”.
As to `CC(=O)NC1C(NC(=N)N)C=C(C(=O)O)OC1C(O)C(O)CO` (stereo not shown) [Zanamivir, 5-acetamido-4-guanidino-6-(1,2,3-trihydroxypropyl)-5,6-dihydro-4H-pyran-2-carboxylic acid], the “effect on the neuraminidase-induced reduction in WGA staining” value with human endothelial cells is “attenuated”. The flow mediated dilation result in the test on femoral arteries [1] is listed as “significantly improved”. Moreover, in the test on femoral arteries [2] (increasing concentrations of acetylcholine), the “endothelial dependent vasodilatory response to acetylcholine” value is reported as “greater”. The “endothelial dependent vasodilatory response to insulin” value with femoral arteries [2] (increasing concentrations of insulin) is recorded as “greater”. Also, in the test with isolated aortas, the aortic endothelial stiffness result is given as “significant reduction”.
